From PubChem BioAssay (NCI)
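The compound was tested at five concentrations on cells cultured in 96-well plates, with a 48-hour exposure period. GI50 marks 50% less growth. At the TGI there is no net growth.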

These molecules were tested on UACC-257 melanoma (assay: growth of human tumour cells (NCI), 48 h).

SMILES	GI50 [µM]	TGI [µM]
O=c1[nH]c2cc(Cl)ccc2n1C1CCN(CCCC(c2ccc(F)cc2)c2ccc(F)cc2)CC1	1.56	3.04

Each molecule was assayed on HCT-15 colon (assay: growth of human tumour cells (NCI), 48 h).

SMILES	GI50 [µM]	TGI [µM]
CCOC(=O)C1=C(C)N(N)C(=S)NC1c1ccc(C)cc1 (stereo not drawn)	9.1	> 100
Cc1ccc(N(CSc2ccc(Cl)cc2)CSc2ccc(Cl)cc2)cc1	2.12	15.3
Nc1ccncc1/C=C1/C(=O)Nc2ccccc21	36.5	> 100
O=c1[nH]c2cc(Cl)ccc2n1C1CCN(CCCC(c2ccc(F)cc2)c2ccc(F)cc2)CC1	1.45	2.76

These molecules were tested on NCI-H460 lung (assay: growth of human tumour cells (NCI), 48 h).

SMILES	GI50 [µM]	TGI [µM]
CCOC(=O)C1=C(C)N(N)C(=S)NC1c1ccc(C)cc1 (stereo not drawn)	24.4	> 100
Cc1ccc(N(CSc2ccc(Cl)cc2)CSc2ccc(Cl)cc2)cc1	0.575	> 100
Nc1ccncc1/C=C1/C(=O)Nc2ccccc21	28.4	> 100
O=c1[nH]c2cc(Cl)ccc2n1C1CCN(CCCC(c2ccc(F)cc2)c2ccc(F)cc2)CC1	1.74	3.14

Each molecule was assayed on ACHN renal (assay: growth of human tumour cells (NCI), 48 h).

SMILES	GI50 [µM]	TGI [µM]
CCOC(=O)C1=C(C)N(N)C(=S)NC1c1ccc(C)cc1 (stereo not drawn)	22.6	> 100
Cc1ccc(N(CSc2ccc(Cl)cc2)CSc2ccc(Cl)cc2)cc1	2.11	15.7
Nc1ccncc1/C=C1/C(=O)Nc2ccccc21	43.7	> 100
O=c1[nH]c2cc(Cl)ccc2n1C1CCN(CCCC(c2ccc(F)cc2)c2ccc(F)cc2)CC1	1.54	2.87

What follows are molecules tested on MOLT-4 leukemia (assay: growth of human tumour cells (NCI), 48 h).

SMILES	GI50 [µM]	TGI [µM]
CCOC(=O)C1=C(C)N(N)C(=S)NC1c1ccc(C)cc1 (stereo not drawn)	45.7	> 100
Cc1ccc(N(CSc2ccc(Cl)cc2)CSc2ccc(Cl)cc2)cc1	0.381	2.63
Nc1ccncc1/C=C1/C(=O)Nc2ccccc21	37.3	> 100
O=c1[nH]c2cc(Cl)ccc2n1C1CCN(CCCC(c2ccc(F)cc2)c2ccc(F)cc2)CC1	2.43	7.15

The molecules below were run on SK-MEL-28 melanoma (assay: growth of human tumour cells (NCI), 48 h).

SMILES	GI50 [µM]	TGI [µM]
CCOC(=O)C1=C(C)N(N)C(=S)NC1c1ccc(C)cc1 (stereo not drawn)	6.99	> 100
Cc1ccc(N(CSc2ccc(Cl)cc2)CSc2ccc(Cl)cc2)cc1	1.64	4.23
Nc1ccncc1/C=C1/C(=O)Nc2ccccc21	28.9	> 100
O=c1[nH]c2cc(Cl)ccc2n1C1CCN(CCCC(c2ccc(F)cc2)c2ccc(F)cc2)CC1	1.47	3.1

The molecules below were run on SK-MEL-2 melanoma (assay: growth of human tumour cells (NCI), 48 h).

SMILES	GI50 [µM]	TGI [µM]
CCOC(=O)C1=C(C)N(N)C(=S)NC1c1ccc(C)cc1 (stereo not drawn)	21.4	> 100
Cc1ccc(N(CSc2ccc(Cl)cc2)CSc2ccc(Cl)cc2)cc1	3.76	25
Nc1ccncc1/C=C1/C(=O)Nc2ccccc21	19.4	87.3
O=c1[nH]c2cc(Cl)ccc2n1C1CCN(CCCC(c2ccc(F)cc2)c2ccc(F)cc2)CC1	1.7	3.35

Each molecule was assayed on SNB-19 CNS (assay: growth of human tumour cells (NCI), 48 h).

SMILES	GI50 [µM]	TGI [µM]
CCOC(=O)C1=C(C)N(N)C(=S)NC1c1ccc(C)cc1 (stereo not drawn)	73	> 100
Cc1ccc(N(CSc2ccc(Cl)cc2)CSc2ccc(Cl)cc2)cc1	1.48	19.8
Nc1ccncc1/C=C1/C(=O)Nc2ccccc21	36.8	> 100
O=c1[nH]c2cc(Cl)ccc2n1C1CCN(CCCC(c2ccc(F)cc2)c2ccc(F)cc2)CC1	1.83	3.79

Each molecule was assayed on OVCAR-4 ovarian (assay: growth of human tumour cells (NCI), 48 h).

SMILES	GI50 [µM]	TGI [µM]
CCOC(=O)C1=C(C)N(N)C(=S)NC1c1ccc(C)cc1 (stereo not drawn)	66	> 100
Cc1ccc(N(CSc2ccc(Cl)cc2)CSc2ccc(Cl)cc2)cc1	2.78	31.4
Nc1ccncc1/C=C1/C(=O)Nc2ccccc21	33.4	> 100
O=c1[nH]c2cc(Cl)ccc2n1C1CCN(CCCC(c2ccc(F)cc2)c2ccc(F)cc2)CC1	1.51	2.9

What follows are molecules tested on KM12 colon (assay: growth of human tumour cells (NCI), 48 h).

SMILES	GI50 [µM]	TGI [µM]
CCOC(=O)C1=C(C)N(N)C(=S)NC1c1ccc(C)cc1 (stereo not drawn)	64.4	> 100
Cc1ccc(N(CSc2ccc(Cl)cc2)CSc2ccc(Cl)cc2)cc1	0.51	12.5
Nc1ccncc1/C=C1/C(=O)Nc2ccccc21	25	> 100
O=c1[nH]c2cc(Cl)ccc2n1C1CCN(CCCC(c2ccc(F)cc2)c2ccc(F)cc2)CC1	1.68	3.27

What follows are molecules tested on NCI-H522 lung (assay: growth of human tumour cells (NCI), 48 h).

SMILES	GI50 [µM]	TGI [µM]
CCOC(=O)C1=C(C)N(N)C(=S)NC1c1ccc(C)cc1 (stereo not drawn)	18.2	> 100
Cc1ccc(N(CSc2ccc(Cl)cc2)CSc2ccc(Cl)cc2)cc1	1.49	3.18
Nc1ccncc1/C=C1/C(=O)Nc2ccccc21	24	71.6
O=c1[nH]c2cc(Cl)ccc2n1C1CCN(CCCC(c2ccc(F)cc2)c2ccc(F)cc2)CC1	1.82	3.64

Each molecule was assayed on NCI-H226 lung (assay: growth of human tumour cells (NCI), 48 h).

SMILES	GI50 [µM]	TGI [µM]
CCOC(=O)C1=C(C)N(N)C(=S)NC1c1ccc(C)cc1 (stereo not drawn)	33.8	> 100
Cc1ccc(N(CSc2ccc(Cl)cc2)CSc2ccc(Cl)cc2)cc1	1.09	2.45
Nc1ccncc1/C=C1/C(=O)Nc2ccccc21	40.5	> 100
O=c1[nH]c2cc(Cl)ccc2n1C1CCN(CCCC(c2ccc(F)cc2)c2ccc(F)cc2)CC1	1.87	3.53

The molecules below were run on 786-0 renal (assay: growth of human tumour cells (NCI), 48 h).

SMILES	GI50 [µM]	TGI [µM]
CCOC(=O)C1=C(C)N(N)C(=S)NC1c1ccc(C)cc1 (stereo not drawn)	> 100	> 100
Cc1ccc(N(CSc2ccc(Cl)cc2)CSc2ccc(Cl)cc2)cc1	1.66	7.66
Nc1ccncc1/C=C1/C(=O)Nc2ccccc21	34.8	> 100
O=c1[nH]c2cc(Cl)ccc2n1C1CCN(CCCC(c2ccc(F)cc2)c2ccc(F)cc2)CC1	1.46	2.79

The molecules below were run on HOP-92 NSCLC (assay: growth of human tumour cells (NCI), 48 h).

SMILES	GI50 [µM]	TGI [µM]
CCOC(=O)C1=C(C)N(N)C(=S)NC1c1ccc(C)cc1 (stereo not drawn)	0.932	> 100
Cc1ccc(N(CSc2ccc(Cl)cc2)CSc2ccc(Cl)cc2)cc1	1.3	6.73
O=c1[nH]c2cc(Cl)ccc2n1C1CCN(CCCC(c2ccc(F)cc2)c2ccc(F)cc2)CC1	1.01	2.41

These molecules were tested on MDA-MB-231 breast (assay: growth of human tumour cells (NCI), 48 h).

SMILES	GI50 [µM]	TGI [µM]
CCOC(=O)C1=C(C)N(N)C(=S)NC1c1ccc(C)cc1 (stereo not drawn)	1.2	> 100
Cc1ccc(N(CSc2ccc(Cl)cc2)CSc2ccc(Cl)cc2)cc1	0.404	2.5
